From patent publication US7196085B2, “Phthalazinone derivatives” (KuDOS Pharmaceuticals Limited, priority 2002, dated 2007)

Question: For `CCCCC/C=C/CC1CC(=O)N(c2cc(Cc3n[nH]c(=O)c4ccccc34)ccc2F)C1=O` (stereo not shown) [Example 28, 1-[2-fluoro-5-(4-oxo-3,4-dihydrophthalazin-1-ylmethyl)phenyl]-3-oct-2-enylpyrrolidine-2,5-dione], which melting point is on record?
Answer: Its melting point is 138 to 141 °C.

Question: With `O=C1C2CC2C(=O)N1c1cc(Cc2n[nH]c(=O)c3ccccc23)ccc1Cl` (stereo not shown) [Example 41, 3-[2-chloro-5-(4-oxo-3,4-dihydrophthalazin-1-ylmethyl)phenyl]-3-azabicyclo[3.1.0]hexane-2,4-dione] as the compound, how does the melting point read?
Answer: Its melting point is 229 to 230 °C.

Question: For `O=C(N[C@H]1CC(=O)N(c2cc(Cc3n[nH]c(=O)c4ccccc34)ccc2F)C1=O)OCc1ccccc1` [Example 35, (S)-3-benzyloxycarbonylamino-1-[2-fluoro-5-(4-oxo-3,4-dihydrophthalazin-1-ylmethyl)phenyl]pyrrolidine-2,5-dione], which melting point is on record?
Answer: Its melting point is 121 to 127 °C.

Question: With `O=C1CC2(CCCC2)C(=O)N1c1cc(Cc2n[nH]c(=O)c3ccccc23)ccc1F` [Example 32, 2-[2-fluoro-5-(4-oxo-3,4-dihydrophthalazin-1-ylmethyl)phenyl]-2-azaspiro[4.4]nonane-1,3-dione] as the compound, how does the melting point read?
Answer: The melting point was 215 to 220 °C.

Question: For `CCCCCC/C=C/CC1CC(=O)N(c2cc(Cc3n[nH]c(=O)c4ccccc34)ccc2F)C1=O` (stereo not shown) [Example 30, 1-[2-Fluoro-5-(4-oxo-3,4-dihydrophthalazin-1-ylmethyl)phenyl]-3-non-2-enylpyrrolidine-2,5-dione], which melting point is on record?
Answer: The melting point was 146 to 149 °C.

Question: With `CCC/C=C/CC1CC(=O)N(c2cc(Cc3n[nH]c(=O)c4ccccc34)ccc2F)C1=O` (stereo not shown) [Example 29, 1-[2-fluoro-5-(4-oxo-3,4-dihydrophthalazin-1-ylmethyl)phenyl]-3-hex-2-enylpyrrolidine-2,5-dione] as the compound, how does the melting point read?
Answer: The melting point was 146 to 149 °C.

Question: Which melting point does the source give for `O=C1CC(c2ccccc2)C(=O)N1c1cc(Cc2n[nH]c(=O)c3ccccc23)ccc1Cl` (stereo not shown) [Example 39, 1-[2-chloro-5-(4-oxo-3,4-dihydrophalazin-1-ylmethyl)phenyl]-3-phenylpyrrolidine-2,5-dione] here?
Answer: Its melting point is 131 to 135 °C.
